# Tests used:
# [1] = Stability under visible light (filtered sunlight, aerobic); assay type: physicochemical
# Procedure: Stability of phytoene and phytofluene under visible light was measured under sunlight (full sun summer day in Rehovot, Israel, at noon) filtered through “hot mirror” (Andover Corporation, Salem, N.H., transmittance 400-650 nm) filter. Samples were dissolved in ethanol, exposed to light for 30-150 min and then extracted in hexane after basic hydrolysis (as in extraction method above). Phytoene, phytofluene and beta-carotene amounts were measured spectrophotometrically, and percentage lefts were calculated as in section 5 above.
# Stability of phytoene and phytofluene was compared to that of beta-carotene stability (as explained in materials and methods) under visible light. The absorbance of the preparation is determined in 220-600 nm wavelength and the amount of each of the above carotenoids in each sample is calculated to determine the percent of the carotenoids measured after irradation of the extract compared to measurements prior to irradiant (see example 2 above).
# [2] = UV absorbance spectra (spectrophotometric analysis); assay type: physicochemical; settings: extract from Dunaliella sp.
# Procedure: Absorption spectra of the phytoene and phytofluene extract was determined using Hewlett Packard 8452A Diode Array Spectrophotometer.
# As expected, the main absorbance peak for β-carotene was at 450 nm. β-Carotene was reduced due to the synthesis inhibition while phytoene and phytofluene increased.
# [3] = system: DNA repair synthesis activity; assay: Genotoxic effect: induction of DNA repair synthesis activity (ratio R); assay type: biochemical; settings: R≦2 no toxic effect
# Procedure: The genotoxicity is measured as the induction of DNA repair synthesis activity and is expressed by the ratio (R): while R≦2 indicate no toxic effect
# [4] = Stability of phytoene and phytofluene under UV irradiation (aerobic); assay type: physicochemical
# Procedure: 6. Stability of Phytoene and Phytofluene Under Aerobic Conditions in UV Lights and Various Incubation Temperatures
# (§1) Stability of the carotenoids in the various temperatures was determined by long-term incubation of phytoene and phytofluene in several types of oils and solvents at 4° C., 23° C., 30° C. and 60° C. The amount of phytoene and phytofluene left was determined spectrophotometrically. The percent of phytoene and phytofluene left was calculated as follows:
# [formula] Stability under UV lights (254 nm, 365 nm, 254+365 nm), for 30 mins. at 300/310 μw/cm^2 was determined. 7. Stability of Phytoene and Phytofluene Under Aerobic Conditions in Visible Light
# The stability of the phytoene and phytofluene extracts obtained as explained in Example 1 above was determined by spectrophotometric analysis. Phytoene and phytofluene were dissolved in hexane or oil. The absorbance of the preparation is determined in 220-600 nm and the amount of each of the above carotenoids in each sample is calculated to determine the percent of the carotenoids measured after irradiation of the extract divided by the amount of the same carotenoid which was measured in the extract before exposing it to irradiation (see Materials and Methods 5 above). The stability of the phytoene and phytofluene was measured by the exposure of the extract both to UVA light (365 nm) and UVB light (254 nm) irradiation as well as to a combination of UVA and UVB irradiation.
# [5] = Stability of phytoene and phytofluene at various incubation temperatures in oils and solvents; assay type: physicochemical; settings: 4° C., 23° C., 30° C. and 60° C., hexane or oils, four months
# Procedure: as §1, with “follows: […]” for “follows:”
# The stability of phytoene and phytofluene under different temperature conditions (4° C., 23° C., 30° C. and 60° C.) in hexane or in other various commercially used oils was also measured.
# The measurements were carried out over a period of four months.
# [6] = 254 nm + 365 nm, 30 minutes exposure, in hexane
# [7] = 254 nm + 365 nm, 30 minutes exposure, in oil
# [8] = 254 nm, 30 minutes exposure, in hexane
# [9] = 254 nm, 30 minutes exposure, in oil
# [10] = 365 nm, 30 minutes exposure, in hexane
# [11] = 365 nm, 30 minutes exposure, in oil
# [12] = Darkness, 30 minutes, in hexane
% left ([1]; time of exposure 0 min) [%],% left ([1]; time of exposure 30 min) [%],% left ([1]; time of exposure 90 min) [%],% left ([1]; time of exposure 120 min) [%],% left ([1]; time of exposure 150 min) [%],main absorbance peak [2] [nm],"PH and PF (% left) [4, 6] [%]","PH and PF (% left) [4, 7] [%]","PH and PF (% left) [4, 8] [%]","PH and PF (% left) [4, 9] [%]","PH and PF (% left) [4, 10] [%]","PH and PF (% left) [4, 11] [%]","PH and PF (% left) [4, 12] [%]","PH and PF (% left) ([4]; Darkness, 30 minutes, in oil) [%]",SMILES,Genotoxicity (Ratio) ([3]; concentration 2 mM),Genotoxicity (Ratio) ([3]; concentration 10 mM),Stability under different temperature conditions [5]
100,25.00,11.36,9.47,5.68,450,–,–,–,–,–,–,–,–,"CC1=C(/C=C/C(C)=C/C=C/C(C)=C/C=C/C=C(C)/C=C/C=C(C)/C=C/C2=C(C)CCCC2(C)C)C(C)(C)CCC1 [Beta-carotene, reference compound]",–,–,–
–,–,–,–,–,–,–,–,–,–,–,–,–,–,COS(C)(=O)=O [MMS],2.44,6.26,–
100,54.46,20.33,15.70,13.64,286,92.4,101,92.2,100,98.7,100,100,100,"CC(C)=CCC/C(C)=C/CC/C(C)=C/CC/C(C)=C/C=C/C=C(\C)CC/C=C(\C)CC/C=C(\C)CCC=C(C)C [Phytoene, 7,8, 11, 12, 7′, 8′, 11′, 12′-octahydro-γ,γ-carotene]",–,–,stable in the entire measured temperature range
100,66.13,50.42,41.33,33.06,348,99.0,98,92.6,90,101.5,88,100,100,"CC(C)=CCC/C(C)=C/CC/C(C)=C/C=C/C(C)=C/C=C/C=C(\C)CC/C=C(\C)CC/C=C(\C)CCC=C(C)C [Phytofluene, 15Z, 7,8, 11, 12, 7′, 8′-hexahydro-γ,γ-carotene]",–,–,stable in the entire measured temperature range

# Source: US7482032B2, “Carotenoid preparation” (I.B.R. Israeli Biotechnology Research, Ltd., priority 1998, dated 2009)
